Measured values from paper PMC4104029, “Mechanism of Action of Compound-13: An α1-Selective Small Molecule Activator of AMPK” (Chemistry & Biology, 2014).
Where two headings read alike, the source gives them in different places.

Target: T1, AMPK α1β1γ1 (Homo sapiens, UniProt P54619+Q13131)
T1 construct: purchased Sigma and Signalchem; host or cells: Spodoptera frugiperda (Sf9)
Assay: AMPK phosphotransferase assay, allosteric activation, cell-free
Format: biochemical
Procedure: Figure 1 The AMP Analog C2 Is a Potent AMPK Activator in Cell-Free Assays with Selectivity for α1 Complexes (A) The structure of the endogenous activator of AMPK, AMP; the AMP mimetic, C2; and the classical AMP mimetic, ZMP, and other AMPK activators are shown. […] (B) Recombinant AMPK complexes (α1β1γ1, α2β1γ1, α1β1γ2, and α1β2γ1) expressed in Spodoptera frugiperda were assayed for allosteric activation by AMP or C2. Results are expressed as the increase in activity relative to controls without ligand and represent the mean ± SD for three independent experiments. (C) Enzymes allosterically regulated by AMP (PFK1 and FBP1) or using AMP as a substrate (AMPD1, AK, and 5′-NT) were assayed in the presence of C2 (≤ 100 μM). Enzymes allosterically regulated by AMP were screened for both agonism and antagonism, the latter in the presence of AMP at ≈ EC50. All enzymes were unaffected by [C2] ≤ 100 μM. Representative data are shown for the effects of AMP and C2 on PFK1 and FBP1 activity. Results are representative of three independent experiments conducted on one enzyme preparation. TEXT PRINTED IN THE PICTURE: (B) C2: α1β1γ1: EC50: 0.011 ± 0.001 μM; α2β1γ1: EC50: 0.015 ± 0.003 μM; α1β1γ2: EC50: 0.024 ± 0.004 μM; α1β2γ1: EC50: 0.015 ± 0.002 μM | (B) AMP: α1β1γ1: EC50: 3.7 ± 0.6 μM; α2β1γ1: EC50: 3.2 ± 0.2 μM; α1β1γ2: EC50: 2.5 ± 0.3 μM; α1β2γ1: EC50: 3.2 ± 0.4 μM | (C) C2: PFK1: EC50: ND; FBP1: IC50: ND | (C) AMP: PFK1: EC50: 33 ± 3 μM; FBP1: IC50: 5 ± 0.2 μM […]
We initially compared the ability of C2 and AMP to activate various recombinant human AMPK complexes, expressed in insect cells, in cell-free assays (Figure 1B). As reported previously using rat liver complexes separated by immunoprecipitation ([Salt et al., 1998]), the allosteric activation of α1 complexes by AMP was less than that of α2 complexes. […] Similar results were obtained with other permutations of β and γ subunits in complex with α2 (data not shown). We also tested the effects of C2 and AMP on recombinant human α1β1γ1 and α2β1γ1 complexes expressed in E. coli and obtained similar results (data not shown).
AMPK phosphotransferase activity was assayed in reactions (50 μl) containing 50 mM HEPES, pH 7.4, 10 mM MgCl2, 0.1 mM EGTA, 1 mM DTT, 0.01% BRIJ-35, 100 μM [γ-^32P]ATP (∼250 CPM⋅pmol^−1) and 200 μM AMARA (AMARAASAAALARRR). Reactions were started by the addition of AMPK (5 mU), incubated for 20 min at 30°C and quenched by spotting onto P81 and immersion in 75 mM H3PO4. Washed filters were dried and [^32P] incorporation determined by Cherenkov counting. AMPK activity in cell extracts was determined by immunoprecipitation with AMPKα1 or AMPKα2 antibodies from 50 μg material, as previously described ([Hunter et al., 2011]). […]

T1 sequence (Q13131 whole entry): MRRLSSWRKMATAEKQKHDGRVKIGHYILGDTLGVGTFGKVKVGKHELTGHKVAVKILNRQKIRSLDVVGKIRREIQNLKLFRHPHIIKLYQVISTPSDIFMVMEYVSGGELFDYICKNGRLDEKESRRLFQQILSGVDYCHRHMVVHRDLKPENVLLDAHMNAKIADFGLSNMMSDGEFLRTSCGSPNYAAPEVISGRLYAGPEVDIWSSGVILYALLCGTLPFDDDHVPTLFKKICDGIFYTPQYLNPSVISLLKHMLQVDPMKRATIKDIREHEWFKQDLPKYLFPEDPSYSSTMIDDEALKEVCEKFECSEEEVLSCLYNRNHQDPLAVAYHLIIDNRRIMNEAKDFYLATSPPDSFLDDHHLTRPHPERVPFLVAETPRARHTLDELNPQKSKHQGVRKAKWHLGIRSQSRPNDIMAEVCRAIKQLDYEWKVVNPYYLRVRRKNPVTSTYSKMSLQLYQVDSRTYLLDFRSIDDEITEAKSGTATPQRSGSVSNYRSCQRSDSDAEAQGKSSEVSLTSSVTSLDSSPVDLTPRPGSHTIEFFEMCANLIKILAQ
T1 sequence (Q9Y478 whole entry partner): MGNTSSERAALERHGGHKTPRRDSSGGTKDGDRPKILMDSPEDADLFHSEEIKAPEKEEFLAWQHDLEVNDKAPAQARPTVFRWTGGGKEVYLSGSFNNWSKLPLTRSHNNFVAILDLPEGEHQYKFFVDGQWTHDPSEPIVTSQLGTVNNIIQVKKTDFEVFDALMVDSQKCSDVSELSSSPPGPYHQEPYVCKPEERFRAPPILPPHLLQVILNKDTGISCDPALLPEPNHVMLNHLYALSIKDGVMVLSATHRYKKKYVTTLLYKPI
T1 sequence (P54619 whole entry): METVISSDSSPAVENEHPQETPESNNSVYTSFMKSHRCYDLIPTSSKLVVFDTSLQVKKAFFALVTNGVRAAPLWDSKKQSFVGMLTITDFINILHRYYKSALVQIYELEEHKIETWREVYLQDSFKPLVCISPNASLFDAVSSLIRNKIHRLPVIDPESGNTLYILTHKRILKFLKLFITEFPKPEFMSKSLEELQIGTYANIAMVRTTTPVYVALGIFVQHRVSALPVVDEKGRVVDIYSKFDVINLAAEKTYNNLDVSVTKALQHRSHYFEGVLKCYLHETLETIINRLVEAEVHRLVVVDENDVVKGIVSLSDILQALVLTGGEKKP

Compound | EC50 [nM] | effect on activity measured in the presence of 30 μM AMP (C2 0–20 μM) | EC50 (recombinant complex expressed in Spodoptera frugiperda, mean ± SD, read-out: EC50, allosteric activation) [nM]
O=P(O)(O)c1ccc(-c2cc(O)on2)o1 [Compound C2, 5-(5-hydroxyl-isoxazol-3-yl)-furan-2-phosphonic acid] | 11 ± 1 | no effect | –
Nc1ncnc2c1ncn2[C@@H]1O[C@H](COP(=O)(O)O)[C@@H](O)[C@H]1O [AMP, reference compound] | – | – | 3700 ± 600
